Entries after “also recorded” stand apart in the source; their conditions may differ.
Key:
NHA = settings: 1 h ascorbate + 25 μM temozolomide + 2 Gy IR
Procedure: (§1) After treatment, cells were washed with PBS and clonogenic assay was completed in their respective media as previously described (Fath et al., 2011). Treatment conditions for individual experiments are as described in the figure legends and summarized in the Supplemental Experimental Procedures.
(§2) 1-2×10^5 cells were plated in 60 mm cell culture dishes and grown in their respective media for 48 h before exposed to experimental conditions. […] For AdGPx1 experiments, cells were supplemented with 50 nM sodium selenite following transduction and throughout clonogenic growth. […] After treatment, cells were washed with PBS and clonogenic assay was completed in their respective media. Briefly, floating and attached cells were collected and total cells per plate were counted. An experimentally derived number of cells were plated into each well of a 6-well cell culture plate in their respective media. For HEL92.1.7 suspension cells, cells were seeded in a top layer of 0.4% (w/v) agarose to allow for quantifiable colony formation. After sufficient time (7-12 days, cell type-dependent), cells were fixed in 70% ethanol and stained with a Brilliant Blue methanol solution. […] Normalized survival fractions were calculated by comparing plating efficiencies of each treatment group against the control group within a given experiment.

HBEpC = settings: 1 h ascorbate + 5 μM carboplatin + 2 Gy IR
Procedure: as §1, §2

[1] = IV delivery; cited from earlier work
U118 cells = assay: Clonogenic survival assay, U118 GBM cells; type: cell-based, human
Procedure: (§3) Treatment conditions for individual experiments are as described in the figure legends and summarized in the Supplemental Experimental Procedures.
as §2, with “formation.” for “formation. After sufficient time (7-12 days, cell type-dependent), cells were fixed in 70% ethanol and stained with a Brilliant Blue methanol solution.”

terminal cancer patients = settings: high doses of ascorbate given both IV and orally; cited from earlier work
H1299 cells = assay: Clonogenic survival assay, H1299 NSCLC cells; type: cell-based, human
Procedure: as §3
as §2, with “formation.” for “formation. After sufficient time (7-12 days, cell type-dependent), cells were fixed in 70% ethanol and stained with a Brilliant Blue methanol solution.”

ARP1 = assay: Colony formation on soft agar, ARP1 myeloma cells; type: cell-based, human; settings: 1 h treatment, colonies after 10-14 days
Description: (§4) A two-layer agar system was used, and colonies were visualized after 10-14 days.

[2] = Ascorbate quantification in mouse plasma, tumor and CSF after IP ascorbate; type: in vivo, mice
Procedure: Tumor xenografts were excised and flash frozen in liquid nitrogen until analysis. Mouse whole blood was collected by cardiac puncture, and plasma was collected after the sample was centrifuged at 500 g for 10 min and frozen until analysis. For patient samples, whole blood was collected from clinical trial patients (NaHeparin 75 USP units, BD Vacutainer® green top blood collection tube, 4 mL), and plasma was collected after centrifugation at 500 g for 10 min and aliquoted and stored at −80° C. until analysis.
Tumor xenografts were excised and flash frozen in liquid nitrogen until analysis. Mouse whole blood was collected by cardiac puncture, and plasma was collected after the sample was centrifuged at 500 g for 10 min and frozen until analysis. For patient samples, whole blood was collected from clinical trial patients (NaHeparin 75 USP units, BD Vacutainer® green top blood collection tube, 4 mL), and plasma was collected after centrifugation at 500 g for 10 min and aliquoted and stored at −80° C. until analysis. […] Briefly, samples were extracted in a buffer containing 90% methanol and 10% water with 250 μM DETAPAC (90:10, v/v), mixed, and incubated on ice for 10 min to precipitate protein. The samples were clarified by centrifugation (16 g, 10 min) with an Eppendorf model 5415D Microfuge. Specifically, samples were diluted at a ratio of 50 μL of plasma to 450 μL extraction buffer. These samples were then further diluted another 77.5 to 105-fold (therefore, 775-1,050 fold overall) in a buffer containing 72% methanol and 28% water with 250 μM DETAPAC (72:28, v/v). […] This protocol ensured that all samples had identical methanol content which is critical for accurate quantification (Vislisel et al., 2007). 100 μL aliquots of the samples or standards were placed in 96-well optical bottom black plates (Thermo Fisher Scientific, Rochester, N.Y., USA). The assay was initiated at room temperature by adding 100 μL of 2.3 mM 4-hydroxy-2,2,6,6-tetramethylpiperidinyloxyl (Tempol) in 2 M sodium acetate trihydrate buffer previously adjusted to pH 5.5 with acetic acid. […] Subsequently, 42 μL of 5.5 mM ortho-phenylenediamine (oPDA) in 2 M sodium acetate buffer (pH 5.5) was added to the samples. Kinetic measurements were immediately initiated and collected every 22 s using a TECAN SpectraFluor Plus plate reader (Tecan, Research Triangle Park, N.C., USA) for the fluorescent condensation product of the reaction of oPDA with DHA (3-dihydroxyethyl)furo[3,4-b]quinoxaline-1-one; λex=345 nm, λem=425 nm). […] Briefly, plasma samples were measured spectrophotometrically (265 nm; ε=13,000 M-1 cm-1) using an Implen Nanophotometer P-330 with a 250× dilution lid, path length=4.00×10-3 cm. The blank for each sample was a pair-‘pre-infusion’ plasma sample, which allowed removal of the background absorbance of plasma proteins and other constituents.
Briefly, mice were anesthetized (17.5 mg ml^−1 ketamine/2.5 mg ml^−1 xylazine mixture), restrained in a stereotaxic frame with an acute head angle, and the dura mater covering the foramen magnum was surgically exposed. CSF was collected by capillary action following minimal puncture of the dura mater and frozen until EPR analysis. Ascorbyl radical EPR spectra were obtained by placing the capillary tube into the bottom of a 250 mm×3 mm (ID) thin walled quartz EPR tube (707-SQ-250M Wilmad-Lab Glass, Vineland, N.J.) centered in a Bruker HS EPR cavity (Bruker, Billerica, Mass.). […]

OCI-MY5 = assay: Colony formation on soft agar, OCI-MY5 myeloma cells; type: cell-based, human; settings: 1 h treatment, colonies after 10-14 days
Description: as §4

U87 cells = assay: Clonogenic survival assay, U87 GBM cells; type: cell-based, human
Procedure: as §3
as §2, with “formation.” for “formation. After sufficient time (7-12 days, cell type-dependent), cells were fixed in 70% ethanol and stained with a Brilliant Blue methanol solution.”

HBEpCs = assay: Intracellular H2O2 with PeroxyOrange-1, HBEpCs; type: cell-based, human; settings: ascorbate 15 pmol cell^−1
Procedure: To visualize intracellular H2O2 levels, the selectively sensitive fluorescent probe PeroxyOrange-1 was utilized as previously described with modifications (Dickinson et al., 2010). 1×10^5 cells were plated and grown in their respective media for 48 h. The complete protocol was conducted in the dark with minimal ambient lighting. Cells were washed with PBS and incubated with 10 uM PO-1 in phenol red free RPMI supplemented with HBE growth supplements for 1 h at 37° C. Cells were then washed in PBS and placed back in phenol red free RPMI supplemented with HBE growth supplements. […] At times indicated, cells were placed on ice for the remainder of the protocol, washed, and trypsinized with phenol red free 0.5% trypsin. After 15 min, cells still attached were scraped and all cells were collected in 15 mL conical vials containing PBS+10% FBS to neutralize the trypsin reaction. Cells were spun at 1200 rpm for 5 min at 4° C., resuspended in 300-500 uL PBS and were run on a LSR II Flow Cytometer (BD Biosciences) with λex=561 nm, λem=585/20 nm. The mean fluorescence intensity (MFI) was analyzed (FlowJo™) and corrected for autoflourescence against unlabeled cells. Normalized MFI was calculated by comparing MFI for a given treatment group against control.

[3] = system: advanced stage NSCLC patients; assay: Phase II clinical trial of pharmacological ascorbate with carboplatin and paclitaxel in advanced stage NSCLC; type: in vivo, human
Procedure: This phase II clinical trial was registered with clinicaltrials.gov (NCT 02420314) prior to enrollment of the first subject. Newly diagnosed advanced stage NSCLC patients were invited to participate.
Whole blood was collected from patients around infusions.
(§5) We have not seen any unexpected or unusual increase in Grade 3/4 toxicities as compared to previously published literature, although it remains too early for a direct comparison. Responses to therapy were determined per RECIST 1.1 criteria (Eisenhauer et al., 2009). Currently, four of six patients have completed the trial with imaging-confirmed partial responses to therapy. […] Finally, one patient progressed with a new spinal lesion, although the target lesions are stable; this patient has been transitioned off of the trial.
as §5, with “This phase II clinical trial was registered with clinicaltrials.gov (NCT 02420314) prior to enrollment of the first subject. Newly diagnosed advanced stage NSCLC patients were invited to participate. […] We” for “We”, “a total” for “four”, “eleven subjects have been recruited to the trial, seven of which are currently evaluable for response. Five of seven” for “six”

[4] = 1 h ascorbate + 25 μM temozolomide + 2 Gy IR
[5] = ascorbate alone, increasing concentrations, 1 h
[6] = Example 1: two hours after last radiation treatment, 4 g/kg IP
[7] = Example 4: 1 h after IP ascorbate 4 g kg^−1, H292 xenograft mice
[8] = first six patients, ascorbate 75 g twice weekly + carboplatin/paclitaxel

O=C1O[C@H]([C@@H](O)CO)C(O)=C1O [ascorbate, L-ascorbic acid]
sensitization to temozolomide + IR (clonogenic survival) (NHA): not | sensitization to carboplatin + IR (clonogenic survival) (HBEpC): not | serum ascorbate concentration achieved (effective therapeutic level) [1]: ≈ 20 mM | sensitization to temozolomide + IR (clonogenic survival) (U118 cells; [4]): selectively sensitized | clonogenic survival / cell killing (U118 cells; [5]): dose-dependent clonogenic cell killing | average increase in survival (terminal cancer patients): 300 days | sensitization to carboplatin + IR (clonogenic survival) (H1299 cells; 1 h ascorbate + 5 μM carboplatin + 2 Gy IR vs Carbo+IR alone): significantly increased sensitivity to Carbo+IR; also recorded: selectively sensitized | clonogenic survival / cell killing (H1299 cells; ascorbate alone, 1 h exposure): more clonogenic cell killing in NSCLC cell lines than chemotherapy plus radiation; also recorded: dose-dependent clonogenic cell killing | ascorbate dose giving complete growth inhibition (colony formation) (ARP1): ≥ 10 pmol/cell | plasma ascorbate concentration vs non-ascorbate treated mice [2, 6]: significantly higher | tumor ascorbate concentration vs non-ascorbate treated mice [2, 6]: significantly higher | ascorbate level in plasma [2, 7]: significantly increased ascorbate levels | ascorbate level in tumor [2, 7]: significantly increased ascorbate levels | ascorbate level in cerebrospinal fluid (ascorbyl radical EPR) ([2]; Example 4: 1 h after IP ascorbate 4 g kg^−1, healthy nude mice): significantly increased ascorbate levels | ascorbate dose giving complete growth inhibition (colony formation) (OCI-MY5): ≥ 10 pmol/cell | sensitization to temozolomide + IR (clonogenic survival) (U87 cells; [4]): selectively sensitized | clonogenic survival / cell killing (U87 cells; [5]): dose-dependent clonogenic cell killing | steady-state levels of H2O2 (PeroxyOrange-1) (HBEpCs): unchanged | patient plasma ascorbate level ([3]; after 75 g IV infusions): 16.4 ± 0.5 mM | patients with imaging-confirmed partial responses (RECIST 1.1) ([3]; ascorbate + carboplatin/paclitaxel, evaluable patients to date): four of six; also recorded: Five of seven | disease control rate [3, 8]: 83% | objective response rate [3, 8]: 67% | grade 3/4 toxicities attributed to ascorbate ([3]; through 134 total infusions): no grade 3/4 toxicities attributed to ascorbate

Source: patent publication US10052304B2, “Compositions and methods for cancer therapy” (UNIVERSITY OF IOWA RESEARCH FOUNDATION, priority 2015, dated 2018)
